Source: the supplement of paper PMC10307832

Tests used:
Assay in all cases: relative viability (nuclei count vs DMSO), 5 days (fraction); higher = more cells survive
Obatoclax + Alpelisib = compound: COC1=CC(c2cc3ccccc3[nH]2)=N/C1=C\c1[nH]c(C)cc1C [Obatoclax] + Cc1nc(NC(=O)N2CCC[C@H]2C(N)=O)sc1-c1ccnc(C(C)(C)C(F)(F)F)c1 [Alpelisib] (partner 2 µM)
In short: (§1)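 One day after seeding in 1536-well plates, lung cancer cell lines were dosed by pin tool. Dosing was either single-drug or a fixed anchor-drug dose plus five library-drug doses (not always all listed) in √10 steps. After 5 days, nuclei were stained in one fix-and-stain step and counted on 4× images, and relative viability is the nuclei count of treated wells over that of vehicle wells, given as the median of duplicate plates.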

Obatoclax + Tozasertib = compound: COC1=CC(c2cc3ccccc3[nH]2)=N/C1=C\c1[nH]c(C)cc1C [Obatoclax] + Cc1cc(Nc2cc(N3CCN(C)CC3)nc(Sc3ccc(NC(=O)C4CC4)cc3)n2)n[nH]1 [Tozasertib] (partner 0.1 µM)
In short: as §1

Bortezomib + Olaparib = compound: CC(C)C[C@H](NC(=O)[C@H](Cc1ccccc1)NC(=O)c1cnccn1)B(O)O [Bortezomib] + O=C(c1cc(Cc2n[nH]c(=O)c3ccccc23)ccc1F)N1CCN(C(=O)C2CC2)CC1 [Olaparib] (partner 8 µM)
In short: as §1

Obatoclax + Palbociclib = compound: COC1=CC(c2cc3ccccc3[nH]2)=N/C1=C\c1[nH]c(C)cc1C [Obatoclax] + CC(=O)c1c(C)c2cnc(Nc3ccc(N4CCNCC4)cn3)nc2n(C2CCCC2)c1=O [Palbociclib] (partner 0.5 µM)
In short: as §1

Cell Line	relative viability (Obatoclax + Alpelisib; first compound 0.01 µM)	relative viability (Obatoclax + Alpelisib; first compound 0.03162 µM)	relative viability (Obatoclax + Alpelisib; first compound 0.1 µM)	relative viability (Obatoclax + Alpelisib; first compound 0.3162 µM)	relative viability (Obatoclax + Alpelisib; first compound 1 µM)	relative viability (Obatoclax + Tozasertib; first compound 0.01 µM)	relative viability (Obatoclax + Tozasertib; first compound 0.03162 µM)	relative viability (Obatoclax + Tozasertib; first compound 0.1 µM)	relative viability (Obatoclax + Tozasertib; first compound 0.3162 µM)	relative viability (Obatoclax + Tozasertib; first compound 1 µM)	relative viability (Bortezomib + Olaparib; first compound 0.0002 µM)	relative viability (Bortezomib + Olaparib; first compound 0.000632 µM)	relative viability (Bortezomib + Olaparib; first compound 0.002 µM)	relative viability (Bortezomib + Olaparib; first compound 0.006325 µM)	relative viability (Bortezomib + Olaparib; first compound 0.02 µM)	relative viability (Obatoclax + Palbociclib; first compound 0.01 µM)	relative viability (Obatoclax + Palbociclib; first compound 0.03162 µM)	relative viability (Obatoclax + Palbociclib; first compound 0.1 µM)	relative viability (Obatoclax + Palbociclib; first compound 0.3162 µM)	relative viability (Obatoclax + Palbociclib; first compound 1 µM)
NCI-H727	0.575	0.578	0.405	0.475	0.245	0.581	0.58	0.755	0.509	0.707	0.673	0.968	0.681	0.803	0.176	0.608	0.618	0.779	0.62	0.646
NCI-H838	0.968	0.992	0.914	0.822	0.617	0.292	0.253	0.292	0.25	0.221	0.739	0.789	0.792	0.124	0.0906	0.223	0.219	0.19	0.195	0.146
NCI-H1355	0.866	0.905	0.795	0.681	0.658	0.602	0.588	0.623	0.538	0.466	0.733	0.725	0.666	0.118	0.107	0.398	0.391	0.371	0.387	0.369
NCI-H1395	1.14	1.2	0.982	0.954	0.474	0.674	0.609	0.64	0.769	0.547	0.474	0.45	0.361	0.336	0.328	0.554	0.602	0.597	0.6	0.439
NCI-H1437	0.97	0.922	0.962	1.01	0.88	0.414	0.439	0.437	0.457	0.521	0.586	0.627	0.553	0.199	0.154	0.306	0.311	0.324	0.31	0.237
NCI-H1651	0.884	0.765	1.04	0.611	0.236	0.796	0.752	0.737	0.552	0.468	0.181	0.194	0.144	0.0868	0.0799	0.522	0.501	0.524	0.553	0.554
NCI-H1666	0.93	0.903	0.881	0.255	0.223	0.634	0.739	0.694	0.367	0.398	0.684	0.783	0.697	0.511	0.45	0.593	0.692	0.659	0.638	0.592
NCI-H1734	0.682	0.619		0.57	0.511	0.296	0.264	0.265	0.236	0.226	0.555	0.661	0.443	0.115	0.0968	0.3	0.338	0.337	0.32	0.303
NCI-H1755	0.871	0.906	0.871	0.871	0.889	0.542	0.537	0.574	0.574	0.515	0.845	0.896	0.828	0.241	0.207	0.427	0.447	0.458	0.497	0.426
NCI-H1793	0.702	0.629	0.885	0.678	0.795	0.309	0.393	0.406	0.324	0.297	0.848		0.904	0.276	0.126	0.286	0.284	0.323	0.33	0.384
NCI-H1915	1.05	0.965	0.993	1.08	1.05	0.401	0.405	0.424	0.382	0.414	0.251	0.257	0.244	0.056	0.0357	0.527	0.557	0.521	0.486	0.522
NCI-H1944	0.808	0.817	0.859	0.89	0.839	0.258	0.254	0.287	0.263	0.24	0.419	0.392	0.414	0.331	0.142	0.344	0.313	0.34	0.318	0.319
NCI-H1975	0.629	0.666	0.663	0.476	0.182	0.706	0.837		0.658	0.131	0.779	0.766	0.16	0.103	0.126	0.557	0.55	0.285	0.542	0.177
NCI-H1993	0.704	0.648	0.682	0.667	0.6	0.594	0.637	0.618	0.604	0.624	1.01	1.01	0.679	0.363	0.398	0.703	0.611	0.692	0.693	0.686
NCI-H2009	1.08	1.16	1.19	1.13	0.286	0.771	0.824	0.703	0.291	0.255	0.654	0.661	0.693	0.222	0.049	0.215	0.224	0.194	0.188	0.123
NCI-H2023	0.603	0.667	0.578	0.605	0.334	0.365	0.354	0.297	0.145	0.151	0.427	0.473	0.485	0.0778	0.0633	0.414	0.361	0.358	0.213	0.218
